Holding throughout (assay): NCI-60 cell line screen, 48 h
Assay [1] has as its system 786-0.
Assay [2] concerns OVCAR-3.
For assay [3], the system named is HCC 2998.
Assay [4] has as its system LOX IMVI.
In assay [5] the test system is MDA-N.
Assay [6] relates to HCT-116.
The subject of assay [7] is ACHN.
Assay [8] deals with Malme-3M.
The subject of assay [9] is SF-268.
Assay [10] has as its system MDA-MB-435.
In assay [11] the test system is HCT-15.
The subject of assay [12] is BT-549.
Assay [13] deals with UACC-62.
Assay [14] relates to NCI-H23.
Assay [15] concerns SK-MEL-5.
Assay [16] concerns SW-620.
Assay [17] relates to HOP-62.
Assay [18] concerns OVCAR-8.
For assay [19], the system named is A549.
Assay [20] relates to PC-3.

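96-well plates; 48 h exposure; 5 concentrations. Endpoints by linear interpolation between flanking doses. Not reached: highest tested concentration assigned. Here, GI50 denotes the concentration required for 50% inhibition of growth.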 Activity calls are given as the source filed them. Rule as the data show it: active = GI50 up to about 1.1 µM and inactive = higher.

For `COc1ccc(S(=O)(=O)N/N=C/C(=O)O)cc1`, the GI50 was 397 µM (inactive) in assay [1]; 495 µM (inactive) in assay [2]; 607 µM (inactive) in [3]; 248 µM (inactive) in assay [4]; 760 µM (inactive) in [5]; 445 µM (inactive) in [6]. Further, the GI50 in assay [7] was 354 µM (inactive); in [8], 832 µM (inactive); in [9] it was 384 µM (inactive); in [10], 407 µM (inactive); in assay [11] it was 542 µM; in assay [12], 284 µM (inactive). Further, the GI50 in [13] is 327 µM (inactive); in assay [14], 369 µM (inactive); in assay [15], 400 µM (inactive); in [16], 485 µM (inactive); in assay [17], 678 µM (inactive); in assay [18], 499 µM (inactive). Further, the GI50 was 849 µM (inactive) in assay [19] and 389 µM (inactive) in assay [20].
With `O=C1c2c(ccc3c2CCCC3)CC12Cc1ccccc1C2`, the GI50 in assay [1] is 14.2 µM (inactive); in assay [2], 9.93 µM (inactive); in [3], 19.1 µM (inactive); in [4] it was 10.1 µM (inactive); in [5], 6.43 µM (inactive); in assay [6], 5.43 µM (inactive). In addition, the GI50 was 7.73 µM (inactive) in [7]; 5.48 µM (inactive) in assay [8]; 43.2 µM (inactive) in assay [9]; 9.38 µM (inactive) in [10]; 4.75 µM in assay [11]; 81.8 µM (inactive) in [12]. Further, the GI50 is 13.5 µM (inactive) in [13]; 10.3 µM (inactive) in [14]; 6.19 µM (inactive) in [15]; 4.88 µM (inactive) in assay [16]; 16.8 µM (inactive) in assay [17]; 9.84 µM (inactive) in assay [18]. In addition, the GI50 in [19] is 13.1 µM (inactive); in [20], 22.9 µM (inactive).

For the origin of these results see ChEMBL document CHEMBL1201862, “PubChem BioAssay data set” (2004).
